{"source": "patent US11065257B2", "about": "“Substituted pyrazoloazepin-4-ones and their use as phosphodiesterase inhibitors” (LEO Pharma A/S, priority 2016, dated 2021)"}
{"target": "T1, human PDE4D catalytic domain (Homo sapiens, UniProt Q08499)", "T1 construct": "UniProt no; Q08499 [S380-L740]", "T1 sequence (Q08499 380-740)": "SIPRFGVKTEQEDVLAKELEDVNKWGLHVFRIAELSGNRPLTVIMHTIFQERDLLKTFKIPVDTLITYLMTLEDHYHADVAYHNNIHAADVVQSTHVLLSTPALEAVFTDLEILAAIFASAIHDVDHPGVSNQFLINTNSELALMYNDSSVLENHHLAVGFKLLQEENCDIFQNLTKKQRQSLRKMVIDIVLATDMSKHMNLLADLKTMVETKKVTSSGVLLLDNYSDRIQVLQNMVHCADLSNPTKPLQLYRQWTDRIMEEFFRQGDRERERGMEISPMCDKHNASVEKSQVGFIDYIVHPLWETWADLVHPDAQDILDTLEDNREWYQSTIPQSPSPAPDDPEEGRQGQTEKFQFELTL", "test": "PDE4 Assay", "assay_type": "biochemical", "settings": "human PDE4D catalytic domain (S380-L740), TR-FRET with FAM-cAMP; expressed as a range of IC50; read-out: PDE4 Potency Range", "in_short": "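Catalytic domain (S380-L740) was incubated with unlabelled cAMP plus FAM-cAMP and titrated compound, then stopped with Tb-donor nanoparticles binding AMP phospho groups. Generated AMP was read by time-resolved FRET; IC50 was reported as 50% inhibition of substrate cleavage relative to controls, expressed as nM ranges.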", "units": {"IC50": "nM"}}
{"smiles": "CCc1nn(CCCOC(=O)c2sc(C)nc2C)c2c1C(=O)NCC1(CCOCC1)C2", "note": "[Example 95, 3-(3-ethyl-4-oxo-spiro[6,8-dihydro-5H-pyrazolo[4,3-c]azepine-7,4′-tetrahydropyran]-1-yl)propyl 2,4-dimethylthiazole-5-carboxylate]", "IC50": "100 to 500"}
{"smiles": "CCc1nn(CCCOC(=O)C2CCS(=O)(=O)C2)c2c1C(=O)NCC1(CCOCC1)C2", "note": "(stereo not shown) [Example 96, 3-(3-ethyl-4-oxo-spiro[6,8-dihydro-5H-pyrazolo[4,3-c]azepine-7,4′-tetrahydropyran]-1-yl)propyl 1,1-dioxothiolane-3-carboxylate]", "IC50": "> 500"}
{"smiles": "CCc1noc(CC)c1C(=O)OCCCn1nc(CC)c2c1CC1(CCOCC1)CNC2=O", "note": "[Example 97, 3-(3-ethyl-4-oxo-spiro[6,8-dihydro-5H-pyrazolo[4,3-c]azepine-7,4′-tetrahydropyran]-1-yl)propyl 3,5-diethylisoxazole-4-carboxylate]", "IC50": "100 to 500"}
{"smiles": "CCc1nn(CCCOC(=O)C2CCCN(C(C)=O)C2)c2c1C(=O)NCC1(CCOCC1)C2", "note": "(stereo not shown) [Example 98, 3-(3-ethyl-4-oxo-spiro[6,8-dihydro-5H-pyrazolo[4,3-c]azepine-7,4′-tetrahydropyran]-1-yl)propyl 1-acetylpiperidine-3-carboxylate]", "IC50": "> 500"}
{"smiles": "CCc1nn(CCCOC(=O)C2CCN(C(C)=O)CC2)c2c1C(=O)NCC1(CCOCC1)C2", "note": "[Example 99, 3-(3-ethyl-4-oxo-spiro[6,8-dihydro-5H-pyrazolo[4,3-c]azepine-7,4′-tetrahydropyran]-1-yl)propyl 1-acetylpiperidine-4-carboxylate]", "IC50": "> 500"}
{"smiles": "CCc1nn(CCCOC(=O)c2sc(OC)nc2C)c2c1C(=O)NCC1(CCOCC1)C2", "note": "[Example 100, 3-(3-ethyl-4-oxo-spiro[6,8-dihydro-5H-pyrazolo[4,3-c]azepine-7,4′-tetrahydropyran]-1-yl)propyl 2-methoxy-4-methyl-thiazole-5-carboxylate]", "IC50": "100 to 500"}
{"smiles": "CCc1nn(CCCOC(=O)c2ccc3ncn(C)c3c2)c2c1C(=O)NCC1(CCOCC1)C2", "note": "[Example 101, 3-(3-ethyl-4-oxo-spiro[6,8-dihydro-5H-pyrazolo[4,3-c]azepine-7,4′-tetrahydropyran]-1-yl)propyl 3-methylbenzimidazole-5-carboxylate]", "IC50": "< 100"}
{"smiles": "CCc1nn(CCCOC(=O)C2CCCS(=O)(=O)C2)c2c1C(=O)NCC1(CCOCC1)C2", "note": "(stereo not shown) [Example 102, 3-(3-ethyl-4-oxo-spiro[6,8-dihydro-5H-pyrazolo[4,3-c]azepine-7,4′-tetrahydropyran]-1-yl)propyl 1,1-dioxothiane-3-carboxylate]", "IC50": "> 500"}
{"smiles": "CCc1nn(CCCOC(=O)C2CCS(=O)(=O)CC2)c2c1C(=O)NCC1(CCOCC1)C2", "note": "[Example 103, 3-(3-ethyl-4-oxo-spiro[6,8-dihydro-5H-pyrazolo[4,3-c]azepine-7,4′-tetrahydropyran]-1-yl)propyl 1,1-dioxothiane-4-carboxylate]", "IC50": "> 500"}
{"smiles": "CCc1nn(CCCOC(=O)C2CCCN(C(=O)OC)C2)c2c1C(=O)NCC1(CCOCC1)C2", "note": "(stereo not shown) [Example 104, O3-[3-(3-ethyl-4-oxo-spiro[6,8-dihydro-5H-pyrazolo[4,3-c]azepine-7,4′-tetrahydropyran]-1-yl)propyl] O1-methyl piperidine-1,3-dicarboxylate]", "IC50": "100 to 500"}
{"smiles": "CCc1nn(CCCOC(=O)C2CCN(C(=O)OC)CC2)c2c1C(=O)NCC1(CCOCC1)C2", "note": "[Example 105, O4-[3-(3-ethyl-4-oxo-spiro[6,8-dihydro-5H-pyrazolo[4,3-c]azepine-7,4′-tetrahydropyran]-1-yl)propyl] O1-methyl piperidine-1,4-dicarboxylate]", "IC50": "100 to 500"}
{"smiles": "CCc1nn(CCCOC(=O)C2CCCN(C(=O)N(C)C)C2)c2c1C(=O)NCC1(CCOCC1)C2", "note": "(stereo not shown) [Example 106, 3-(3-ethyl-4-oxo-spiro[6,8-dihydro-5H-pyrazolo[4,3-c]azepine-7,4′-tetrahydropyran]-1-yl)propyl 1-(dimethylcarbamoyl)piperidine-3-carboxylate]", "IC50": "100 to 500"}
{"smiles": "CCc1nn(C[C@@H](C)COC(=O)C2CCOC2)c2c1C(=O)NCC1(CCOCC1)C2", "note": "(stereo partly drawn) [Example 108, [(2R)-3-(3-ethyl-4-oxo-spiro[6,8-dihydro-5H-pyrazolo[4,3-c]azepine-7,4′-tetrahydropyran]-1-yl)-2-methyl-propyl] tetrahydrofuran-3-carboxylate]", "IC50": "< 100"}
{"smiles": "CCc1nn(C[C@@H](C)COC(=O)C2CCOCC2)c2c1C(=O)NCC1(CCOCC1)C2", "note": "[Example 109, [(2R)-3-(3-ethyl-4-oxo-spiro[6,8-dihydro-5H-pyrazolo[4,3-c]azepine-7,4′-tetrahydropyran]-1-yl)-2-methyl-propyl] tetrahydropyran-4-carboxylate]", "IC50": "< 100"}
{"smiles": "CCc1nn(CC(C)(C)COC(=O)C2CCOC2)c2c1C(=O)NCC1(CCOCC1)C2", "note": "(stereo not shown) [Example 110, [3-(3-ethyl-4-oxo-spiro[6,8-dihydro-5H-pyrazolo[4,3-c]azepine-7,4′-tetrahydropyran]-1-yl)-2,2-dimethyl-propyl] tetrahydrofuran-3-carboxylate]", "IC50": "100 to 500"}
{"smiles": "CCc1nn(CC(C)(C)COC(=O)C2CCOCC2)c2c1C(=O)NCC1(CCOCC1)C2", "note": "[Example 111, [3-(3-ethyl-4-oxo-spiro[6,8-dihydro-5H-pyrazolo[4,3-c]azepine-7,4′-tetrahydropyran]-1-yl)-2,2-dimethyl-propyl] tetrahydropyran-4-carboxylate]", "IC50": "100 to 500"}
